This passage reports IC50 results from US12583870B2, “Azaheteroaryl compound and application thereof” (SHANGHAI BLUERAY BIOPHARMA CO., LTD., priority 2019, dated 2026).

Assay [1] relates to trimethylation level of histone H3K27 in G401 cells. The assay can be described thus: ELISA (H3K27 trimethylation) analysis in G401 cells. It is filed as cell-based. Particulars: Homo sapiens, G-401, 72 hours, H3K27me3 standardized to H3. The essentials:
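Cells exposed 72 h to 10-point 3-fold dilutions, top 10 μM, 0.5% final DMSO. Acid-extracted histones assayed by ELISA (ECL) for H3K27me3, normalized to total H3 and to DMSO control; IC50 from dose-response fit.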
Background: ELISA stands for enzyme-linked immunosorbent assay.

Assay [2] deals with T1, EED protein (His6-tagged full-length) binding to H3K27me3 polypeptide (Homo sapiens, UniProt O75530).
T1 construct: His6-tagged full-length EED protein (441 amino acids)
Briefly: AlphaScreen evaluation of blocking the binding of EED to H3K27Me3. Particulars: EED 60 nM, biotinylated H3K27me3 75 nM, 30 minutes incubation. Here is the method: Firstly, compound solutions of different concentration gradients were prepared. Compound powder was dissolved in DMSO to prepare a mother liquor. 1.5 μl of the mother liquor of the compound was taken and added into 198.5 μl of a reaction buffer (25 mM HEPES (pH 8.0), 50 mM NaCl, 0.015% Tween 20, 0.5% BSA). The mixture was mixed uniformly. Then a 3-fold series dilution was carried out with the above-mentioned buffer containing 0.75% DMSO. 9 different test concentrations were provided for one same compound. 5 μL of compounds of different concentration gradients were taken and added into the ProxiPlate-384 Plus, White detection plate (PerkinElmer, 6008280) and two replicates in parallel were provided for each concentration gradient.
Secondly, a reaction for blocking the binding was carried out. The above-mentioned buffer was used to dilute His6-tagged full-length EED protein (441 amino acids) to 60 nM and biotinylated polypeptide fragment H3K27me3 (amino acids at positions 19-33) (Biotinylated-H3K27me3) to 75 nM. 5 μl of the polypeptide fragment at the concentration of 75 nM and 5 µl of the protein at the concentration of 60 nM were transferred to the detection wells containing the compound, respectively. The detection plate was sealed with the film and incubation was carried out at room temperature for 30 minutes.
Finally, the detection was carried out with the AlphaScreen method. Prior use, nickel chelate receptor beads and streptavidin donor beads (at the ratio of 1:1, Perkin Elmer, product number 6760619M) were mixed with the above-mentioned reaction buffer. Then 5 μl of the above-mentioned pre-mixed detection solution was added to each of the detection wells. The donor beads and receptor beads were both at a final concentration of 5 μg/mL. The detection plate was covered and sealed with tinfoil and placed in the dark at room temperature for 1 hour. The signal was read using the AlphaScreen detector on the Spectra max i3. AlphaScreen signals were standardlized based on the readings obtained from positive controls (maximum signal controls) and negative controls (minimum signal controls) to give the inhibition rates for compounds at different concentrations, and afterwards non-linear regression analysis was carried out using GraphPad Prism 5, inhibition curves were made based on the Dose-Response equation of Y=Bottom+(Top−Bottom)/(1+10^((Log IC50−X)*HillSlope)) and the IC50 values of each compound were obtained. […]

In the next assay the test system is KARPAS-422 cells. Briefly: Cell proliferation analysis, KARPAS-422, 13 days, CellTiter-Glo. Particulars: Homo sapiens, 312 h. The assay is classed as cell-based. The method in brief: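 KARPAS-422 cells were treated with PRC2 inhibitors over 9 three-fold dilutions from 10 μM top (0.5% DMSO, duplicates) in RPMI-1640 with 15% FBS at 37 °C. Every 3–4 days cells were counted and reseeded at 1×10^4/well with fresh compound. Viability was read by CellTiter-Glo luminescence on day 13.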
(ATP-based viability assays read luminescence as a measure of living cells.)

T1 sequence (O75530 whole entry): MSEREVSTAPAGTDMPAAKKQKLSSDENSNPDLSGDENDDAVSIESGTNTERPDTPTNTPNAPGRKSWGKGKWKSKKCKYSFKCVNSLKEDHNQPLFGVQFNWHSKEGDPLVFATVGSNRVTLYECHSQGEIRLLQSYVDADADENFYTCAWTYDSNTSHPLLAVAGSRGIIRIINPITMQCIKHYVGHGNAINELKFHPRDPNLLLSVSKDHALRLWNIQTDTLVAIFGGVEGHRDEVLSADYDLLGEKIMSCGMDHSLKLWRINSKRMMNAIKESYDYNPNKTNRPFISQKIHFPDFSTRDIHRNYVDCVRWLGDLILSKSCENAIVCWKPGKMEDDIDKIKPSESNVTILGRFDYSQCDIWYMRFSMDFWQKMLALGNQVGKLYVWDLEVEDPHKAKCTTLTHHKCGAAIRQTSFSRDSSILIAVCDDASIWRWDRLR

The IC50 is the concentration that gives 50% inhibition. Lower therefore signals greater potency. For the compound `O=S1(=O)C=c2cc(-c3cnc(NCc4c(F)ccc5c4[C@H]4C[C@H]4O5)n4cnnc34)ccc2=C1F` [1-fluoro-5-(5-((((1aR,6bR)-5-fluoro-1a,6b-dihydro-1H-cyclopropa[b]benzofuran-6-yl)methyl)amino)-[1,2,4]triazolo[4,3-c]pyrimidin-8-yl)benzo[c]thiophene 2,2-dioxide], the IC50 in assay [1] is 0.075 µM; in assay [2] it was 0.186 µM.

For the compound `Cc1cc(-c2cnc(NCc3c(F)ccc4c3CCO4)n3cnnc23)c2nc(C(F)(F)F)cn2c1` [N-((5-fluoro-2,3-dihydrobenzofuran-4-yl)methyl)-8-(6-methyl-2-(trifluoromethyl)imidazo[1,2-a]pyridin-8-yl)-[1,2,4]triazolo[4,3-c]pyrimidin-5-amine], the IC50 in assay [1] stood at 0.041 µM; in assay [2] it was 0.0157 µM.

Turning to `CCOC(=O)c1c(C)nc2c(-c3cnc(NCc4c(F)ccc5c4CCO5)n4cnnc34)cc(F)cn12` [Ethyl 6-fluoro-8-(5-(((5-fluoro-2,3-dihydrobenzofuran-4-yl)methyl)amino)-[1,2,4]triazolo[4,3-c]pyrimidin-8-yl)-2-methylimidazo[1,2-a]pyridine-3-carboxylate], the IC50 came to 0.087 µM in assay [1] and 0.0452 µM in assay [2].

In the case of `O=C(O)c1cnc2c(-c3cnc(NCc4c(F)ccc5c4CCO5)n4cnnc34)cccn12` [8-(5-(((5-fluoro-2,3-dihydrobenzofuran-4-yl)methyl)amino)-[1,2,4]triazolo[4,3-c]pyrimidin-8-yl)imidazo[1,2-a]pyridine-3-carboxylic acid], the IC50 in assay [1] is 0.329 µM; in assay [2] it was 0.0051 µM.

Regarding `Fc1ccc2c(c1CNc1ncc(-c3cccn4c(F)cnc34)c3nncn13)CCO2`, the IC50 was 0.0035 µM in assay [1] and 0.0092 µM in assay [2].

`Fc1ccc2c(c1CNc1ncc(-c3cnc4nccn4c3)c3nncn13)CCO2` [N-((5-fluoro-2,3-dihydrobenzofuran-4-yl)methyl)-8-(imidazo[1,2-a]pyrimidin-6-yl)-[1,2,4]triazolo[4,3-c]pyrimidin-5-amine]: the IC50 in assay [1] was 0.0129 µM; in assay [2], 0.0049 µM.

For the compound `Fc1ccc2c(c1CNc1ncc(-c3cc(Cl)cn4cc(C(F)(F)F)nc34)c3nncn13)CCO2`, the IC50 in assay [1] is 0.089 µM; in assay [2] it was 0.0096 µM.

Take `Fc1ccc2c(c1CNc1ncc(-c3cccc4cccnc34)c3nncn13)CCO2` [N-((5-fluoro-2,3-dihydrobenzofuran-4-yl)methyl)-8-(quinolin-8-yl)-[1,2,4]triazolo[4,3-c]pyrimidin-5-amine]: the IC50 in assay [1] turned out to be 0.0029 µM; in assay [2], 0.0051 µM.

`CCOC(=O)c1c(O)nc2c(-c3cnc(NCc4c(F)ccc5c4CCO5)n4cnnc34)cccn12` [Ethyl 8-(5-(((5-fluoro-2,3-dihydrobenzofuran-4-yl)methyl)amino)-[1,2,4]triazolo[4,3-c]pyrimidin-8-yl)-2-hydroxyimidazo[1,2-a]pyridine-3-carboxylate]: the IC50 is 0.068 µM in assay [1] and 0.0221 µM in assay [2].

Consider `Fc1ccc2c(c1CNc1ncc(-c3c(C(F)(F)F)ccc4nsnc34)c3nncn13)CCO2` [N-((5-fluoro-2,3-dihydrobenzofuran-4-yl)methyl)-8-(5-(trifluoromethyl)benzo[c][1,2,5]thiadiazol-4-yl)-[1,2,4]triazolo[4,3-c]pyrimidin-5-amine], for which the IC50 is 0.17 µM in assay [1] and 0.0464 µM in assay [2].

With `CC1=C(Cl)c2cc(-c3cnc(NCc4c(F)ccc5c4[C@H]4C[C@H]4O5)n4cnnc34)ccc2S1(=O)=O` [3-chloro-5-(5-((((1aR,6bR)-5-fluoro-1a,6b-dihydro-1H-cyclopropa[b]benzofuran-6-yl)methyl)amino)-[1,2,4]triazolo[4,3-c]pyrimidin-8-yl)-2-methylbenzo[b]thiophene 1,1-dioxide], the IC50 was determined as 0.127 µM in assay [1] and 0.011 µM in assay [2].

`Fc1ccc2c(c1CNc1ncc(-c3ccc(C(F)(F)F)n4ncnc34)c3nncn13)CCO2` [N-((5-fluoro-2,3-dihydrobenzofuran-4-yl)methyl)-8-(5-(trifluoromethyl)-[1,2,4]triazolo[1,5-a]pyridin-8-yl)-[1,2,4]triazolo[4,3-c]pyrimidin-5-amine]: the IC50 amounted to 0.036 µM in the assay on KARPAS-422 cells and 0.0069 µM in assay [1].

Turning to `N#Cc1cnc2c(-c3cnc(NCc4c(F)ccc5c4CCO5)n4cnnc34)ccc(N3CCOCC3)n12` [8-(5-(((5-fluoro-2,3-dihydrobenzofuran-4-yl)methyl)amino)-[1,2,4]triazolo[4,3-c]pyrimidin-8-yl)-5-morpholinoimidazo[1,2-a]pyridine-3-carbonitrile], the IC50 (in the assay with KARPAS-422 cells; in assay [1]) was 0.0013 µM in each case.

As to `Cc1ccc(-c2cnc(NCc3c(F)ccc4c3CCO4)n3cnnc23)c2ncc(CC(=O)N3CCOCC3)n12` [2-(8-(5-(((5-fluoro-2,3-dihydrobenzofuran-4-yl)methyl)amino)-[1,2,4]triazolo[4,3-c]pyrimidin-8-yl)-5-methylimidazo[1,2-a]pyridin-3-yl)-1-morpholinoethan-1-one], the IC50 is 0.0057 µM in the assay on KARPAS-422 cells and 0.0143 µM in assay [1].

As to `Fc1ccc2c(c1CNc1ncc(-c3ccc(C(F)(F)F)n4ccnc34)c3nncn13)CCO2` [N-((5-fluoro-2,3-dihydrobenzofuran-4-yl)methyl)-8-(5-(trifluoromethyl)imidazo[1,2-a]pyridin-8-yl)-[1,2,4]triazolo[4,3-c]pyrimidin-5-amine], the half-maximal inhibitory concentration (IC50) with KARPAS-422 cells was 0.007 µM; in assay [1] it was 0.0106 µM.

For `Cc1ncc(-c2cnc(NCc3c(F)ccc4c3CCO4)n3cnnc23)c2ncnn12` [N-((5-fluoro-2,3-dihydrobenzofuran-4-yl)methyl)-8-(5-methyl-[1,2,4]triazolo[1,5-c]pyrimidin-8-yl)-[1,2,4]triazolo[4,3-c]pyrimidin-5-amine], the IC50 in the assay on KARPAS-422 cells was 0.0025 µM; in assay [1], 0.0045 µM.

Consider `Fc1ccc2c(c1CNc1ncc(C3=CC=CN4CCN=C34)c3nncn13)CCO2` [8-(2,3-dihydroimidazo[1,2-a]pyridin-8-yl)-N-((5-fluoro-2,3-dihydrobenzofuran-4-yl)methyl)-[1,2,4]triazolo[4,3-c]pyrimidin-5-amine], for which, in assay [2], the IC50 was determined as 0.0052 µM. This counts as single-digit nanomolar.

Consider `Cc1ccc(-c2cnc(NCc3c(F)ccc4c3[C@H]3C[C@H]3O4)n3cnnc23)c2ncnn12` [N-(((1aR,6bR)-5-fluoro-1a,6b-dihydro-1H-cyclopropa[b]benzofuran-6-yl)methyl)-8-(5-methyl-[1,2,4]triazolo[1,5-a]pyridin-8-yl)-[1,2,4]triazolo[4,3-c]pyrimidin-5-amine], for which the IC50 in the assay with KARPAS-422 cells was 0.0044 µM; in assay [1], 0.0024 µM.

For the compound `Cc1c(F)cc(-c2cnc(NCc3c(F)ccc4c3CCO4)n3cnnc23)c2ncnn12` [N-((5-fluoro-2,3-dihydrobenzofuran-4-yl)methyl)-8-(6-fluoro-5-methyl-[1,2,4]triazolo[1,5-a]pyridin-8-yl)-[1,2,4]triazolo[4,3-c]pyrimidin-5-amine], the IC50 in the assay on KARPAS-422 cells amounted to 0.0047 µM; in assay [1], 0.0036 µM.

Turning to `Fc1ccc2c(c1CNc1ncc(-c3ccc(Cl)n4ncnc34)c3nncn13)CCO2` [8-(5-chloro-[1,2,4]triazolo[1,5-a]pyridin-8-yl)-N-((5-fluoro-2,3-dihydrobenzofuran-4-yl)methyl)-[1,2,4]triazolo[4,3-c]pyrimidin-5-amine], the IC50 in the assay on KARPAS-422 cells amounted to 0.018 µM; in assay [1], 0.033 µM.

Consider `Fc1ccc2c(c1CNc1ncc(-c3cccc4nn[nH]c34)c3nncn13)CCO2` [8-(1H-benzo[d][1,2,3]triazol-7-yl)-N-((5-fluoro-2,3-dihydrobenzofuran-4-yl)methyl)-[1,2,4]triazolo[4,3-c]pyrimidin-5-amine], for which the IC50 amounted to 0.0012 µM with KARPAS-422 cells and 0.0007 µM in assay [1].

For `CC(C)(O)c1ccc(-c2cnc(NCc3c(F)ccc4c3CCO4)n3cnnc23)c2ncnn12` [2-(8-(5-(((5-fluoro-2,3-dihydrobenzofuran-4-yl)methyl)amino)-[1,2,4]triazolo[4,3-c]pyrimidin-8-yl)-[1,2,4]triazolo[1,5-a]pyridin-5-yl)propan-2-ol], the IC50 with KARPAS-422 cells was 0.0002 µM; in assay [1] it was 0.0004 µM.
